These results are taken from patent US11014911B2, “CDK2 inhibitors” (Pfizer Inc., priority 2019, dated 2021).

In one assay the target is GSK3β (H350L) (Homo sapiens (Human), UniProt P49841). The settings on record: read-out: GSK3β Ki.
The target of assay [1] is CDK2/Cyclin E1 full length (Homo sapiens (Human), UniProt P24941). The experiment in a line: CDK2/Cyclin E1 full length mobility shift assay. It counts as biochemical.

Bounds are passed on as bounds.

Sequence of GSK3β (H350L) (P49841 whole entry, stated change not applied): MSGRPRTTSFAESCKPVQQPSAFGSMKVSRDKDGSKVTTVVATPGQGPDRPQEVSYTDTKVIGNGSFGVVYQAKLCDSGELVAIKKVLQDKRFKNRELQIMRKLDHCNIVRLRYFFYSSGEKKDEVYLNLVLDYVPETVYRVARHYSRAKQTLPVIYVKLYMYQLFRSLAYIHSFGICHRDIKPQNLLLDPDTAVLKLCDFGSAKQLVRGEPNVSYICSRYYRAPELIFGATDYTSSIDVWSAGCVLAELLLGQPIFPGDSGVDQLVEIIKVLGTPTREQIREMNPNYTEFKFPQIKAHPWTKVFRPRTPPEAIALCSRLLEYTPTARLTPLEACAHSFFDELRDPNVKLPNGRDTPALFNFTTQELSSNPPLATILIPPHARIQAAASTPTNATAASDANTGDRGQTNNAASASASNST
Method for GSK3β (H350L): The assay was initiated with the addition of ATP, following 15 minutes pre-incubation of enzyme and inhibitor at room temperature in the reaction mixture. The reaction was stopped after 30 minutes at room temperature by the addition of 50 μL of 80 mM EDTA.

As to `CC(C)NC(=O)O[C@@H]1CC[C@H](c2cc(NC(=O)c3cnnn3C)n[nH]2)C1` [Example 262, (1R,3S)-3-(3-{[(1-methyl-1H-1,2,3-triazol-5-yl)carbonyl]amino}-1H-pyrazol-5-yl)cyclopentyl propan-2-ylcarbamate], the Ki on GSK3β (H350L) is over 47.6 nM; in assay [1], 0.64 nM.

For the compound `CC(C)NC(=O)O[C@H]1CC[C@@H](c2cc(NC(=O)Cc3ccno3)n[nH]2)C1` [Example 263, (1S,3R)-3-{3-[(1,2-oxazol-5-ylacetyl)amino]-1H-pyrazol-5-yl}cyclopentyl propan-2-ylcarbamate], the Ki on GSK3β (H350L) came to 31.9 nM; in assay [1], 0.52 nM.

As for `CC(C)NC(=O)O[C@H]1CC[C@@H](c2cc(NC(=O)Cc3cnn(C)c3)n[nH]2)C1` [Example 266, (1S,3R)-3-(3-{[(1-methyl-1H-pyrazol-4-yl)acetyl]amino}-1H-pyrazol-5-yl)cyclopentyl propan-2-ylcarbamate], the values for the Ki (on GSK3β (H350L); in assay [1]) were 32.6 nM and 0.39 nM, respectively.

Regarding `Cc1cnc(CC(=O)Nc2cc([C@@H]3CC[C@H](OC(=O)NC(C)C)C3)[nH]n2)o1` [Example 270, (1S,3R)-3-(3-{[(5-methyl-1,3-oxazol-2-yl)acetyl]amino}-1H-pyrazol-5-yl)cyclopentyl propan-2-ylcarbamate], the Ki on GSK3β (H350L) is 39.9 nM; in assay [1], 0.86 nM.

Consider `Cc1coc(CC(=O)Nc2cc([C@H]3CC[C@@H](OC(=O)NC(C)C)C3)[nH]n2)n1` [Example 272, (1R,3S)-3-(3-{[(4-methyl-1,3-oxazol-2-yl)acetyl]amino}-1H-pyrazol-5-yl)cyclopentyl propan-2-ylcarbamate], for which the values for the Ki (on GSK3β (H350L); in assay [1]) were 40.9 nM and 2.63 nM, respectively.

With `COc1ccc(CC(=O)Nc2cc([C@H]3CC[C@@H](OC(=O)NC(C)C)C3)[nH]n2)cc1` [Example 275, (1R,3S)-3-(3-{[(4-methoxyphenyl)acetyl]amino}-1H-pyrazol-5-yl)cyclopentyl propan-2-ylcarbamate], the results for the Ki (at GSK3β (H350L); in assay [1]) were 53.1 nM and 0.49 nM, respectively.

`COc1cc(CC(=O)Nc2cc([C@H]3CC[C@@H](OC(=O)NC(C)C)C3)[nH]n2)ccn1` [Example 276, (1R,3S)-3-(3-{[(2-methoxypyridin-4-yl)acetyl]amino}-1H-pyrazol-5-yl)cyclopentyl propan-2-ylcarbamate]: the results for the Ki (at GSK3β (H350L); in assay [1]) were 33.1 nM and 0.64 nM, respectively.

Take `COCCn1nccc1C(=O)Nc1cc([C@H]2CC[C@@H](OC(=O)NC(C)C)C2)[nH]n1` [Example 278, (1R,3S)-3-[3-({[1-(2-methoxyethyl)-1H-pyrazol-5-yl]carbonyl}amino)-1H-pyrazol-5-yl]cyclopentyl propan-2-ylcarbamate]: the Ki came to 56.7 nM on GSK3β (H350L) and 0.52 nM in assay [1].

Take `CC(C)NC(=O)O[C@@H]1CC[C@H](c2cc(NC(=O)Cc3cc(F)cc(F)c3)n[nH]2)C1` [Example 279, (1R,3S)-3-(3-{[(3,5-difluorophenyl)acetyl]amino}-1H-pyrazol-5-yl)cyclopentyl propan-2-ylcarbamate]: the Ki at GSK3β (H350L) is 53.2 nM; in assay [1], 0.32 nM.

For `COc1ncc(CC(=O)Nc2cc([C@H]3CC[C@@H](OC(=O)NC(C)C)C3)[nH]n2)s1` [Example 281, (1R,3S)-3-(3-{[(2-methoxy-1,3-thiazol-5-yl)acetyl]amino}-1H-pyrazol-5-yl)cyclopentyl propan-2-ylcarbamate], the Ki worked out at 24.4 nM at GSK3β (H350L) and 0.33 nM in assay [1].

In the case of `Cc1cc(CC(=O)Nc2cc([C@H]3CC[C@@H](OC(=O)N(C)C(C)C)C3)[nH]n2)on1` [Example 289, (1R,3S)-3-(3-{[(3-methyl-1,2-oxazol-5-yl)acetyl]amino}-1H-pyrazol-5-yl)cyclopentyl methyl(propan-2-yl)carbamate], the Ki on GSK3β (H350L) was 10.6 nM; in assay [1], 0.49 nM.

In the case of `Cn1nncc1C(=O)Nc1cc([C@H]2CC[C@@H](OC(=O)NC(C)(C)C)C2)[nH]n1` [Example 293, (1R,3S)-3-(3-{[(1-methyl-1H-1,2,3-triazol-5-yl)carbonyl]amino}-1H-pyrazol-5-yl)cyclopentyl tert-butylcarbamate], the Ki was over 95.3 nM on GSK3β (H350L) and 0.85 nM in assay [1].

`CC(C)(C)NC(=O)O[C@@H]1CC[C@H](c2cc(NC(=O)Cc3ccccn3)n[nH]2)C1` [Example 294, (1R,3S)-3-{3-[(pyridin-2-ylacetyl)amino]-1H-pyrazol-5-yl}cyclopentyl tert-butylcarbamate]: the Ki at GSK3β (H350L) was found to be 32 nM; in assay [1], 0.62 nM.

With `Cc1cc(CC(=O)Nc2cc([C@H]3CC[C@@H](OC(=O)NC(C)(C)C)C3)[nH]n2)no1` [Example 295, (1R,3S)-3-(3-{[(5-methyl-1,2-oxazol-3-yl)acetyl]amino}-1H-pyrazol-5-yl)cyclopentyl tert-butylcarbamate], the Ki on GSK3β (H350L) came out at 56.1 nM; in assay [1], 0.38 nM.

On to `Cc1nnc(CC(=O)Nc2cc([C@H]3CC[C@@H](OC(=O)NC(C)(C)C)C3)[nH]n2)o1` [Example 298, (1R,3S)-3-(3-{[(5-methyl-1,3,4-oxadiazol-2-yl)acetyl]amino}-1H-pyrazol-5-yl)cyclopentyl tert-butylcarbamate], for which the Ki on GSK3β (H350L) is 72 nM; in assay [1] it was 0.68 nM.

`Cc1cnc(CC(=O)Nc2cc([C@H]3CC[C@@H](OC(=O)NC(C)(C)C)C3)[nH]n2)cn1` [Example 299, (1R,3S)-3-(3-{[(5-methylpyrazin-2-yl)acetyl]amino}-1H-pyrazol-5-yl)cyclopentyl tert-butylcarbamate]: the Ki at GSK3β (H350L) was 29.9 nM; in assay [1] it was 0.26 nM.

For `COCCn1nccc1C(=O)Nc1cc([C@H]2CC[C@@H](OC(=O)NC(C)(C)C)C2)[nH]n1` [Example 308, (1R,3S)-3-[3-({[1-(2-methoxyethyl)-1H-pyrazol-5-yl]carbonyl}amino)-1H-pyrazol-5-yl]cyclopentyl tert-butylcarbamate], the Ki at GSK3β (H350L) was found to be 89.1 nM; in assay [1], 0.3 nM.

In the case of `CC(C)(C)NC(=O)O[C@@H]1CC[C@H](c2cc(NC(=O)Cc3cc(C(F)F)ccn3)n[nH]2)C1` [Example 314, (1R,3S)-3-[3-({[4-(difluoromethyl)pyridin-2-yl]acetyl}amino)-1H-pyrazol-5-yl]cyclopentyl tert-butylcarbamate], the results for the Ki (on GSK3β (H350L); in assay [1]) were 40.6 nM and 0.41 nM, respectively.

With `COc1cc(CC(=O)Nc2cc([C@H]3CC[C@@H](OC(=O)NC(C)(C)C)C3)[nH]n2)c(OC)cn1` [Example 315, (1R,3S)-3-(3-{[(2,5-dimethoxypyridin-4-yl)acetyl]amino}-1H-pyrazol-5-yl)cyclopentyl tert-butylcarbamate], the Ki on GSK3β (H350L) was 133 nM; in assay [1], 0.65 nM.

Take `CC(C)(C)NC(=O)O[C@@H]1CC[C@H](c2cc(NC(=O)Cc3cnc(C(F)(F)F)cn3)n[nH]2)C1` [Example 317, (1R,3S)-3-[3-({[5-(trifluoromethyl)pyrazin-2-yl]acetyl}amino)-1H-pyrazol-5-yl]cyclopentyl tert-butylcarbamate]: the results for the Ki (at GSK3β (H350L); in assay [1]) were 46 nM and 0.26 nM, respectively.

As to `COc1ccc(S(C)(=O)=O)c(CC(=O)Nc2cc([C@H]3CC[C@@H](OC(=O)NC(C)(C)C)C3)[nH]n2)c1` [Example 319, (1R,3S)-3-[3-({[5-methoxy-2-(methylsulfonyl)phenyl]acetyl}amino)-1H-pyrazol-5-yl]cyclopentyl tert-butylcarbamate], the Ki at GSK3β (H350L) is 123 nM; in assay [1], 0.39 nM.

Consider `CC[C@H](C)NC(=O)O[C@@H]1CC[C@H](c2cc(NC(=O)c3cncn3C)n[nH]2)C1` [Example 321, (1R,3S)-3-(3-{[(1-methyl-1H-imidazol-5-yl)carbonyl]amino}-1H-pyrazol-5-yl)cyclopentyl (2S)-butan-2-ylcarbamate], for which the inhibitory constant (Ki) on GSK3β (H350L) is over 191 nM; in assay [1], 0.63 nM.

Consider `CC[C@@H](C)NC(=O)O[C@@H]1CC[C@H](c2cc(NC(=O)Cc3ccno3)n[nH]2)C1` [Example 322, (1R,3S)-3-{3-[(1,2-oxazol-5-ylacetyl)amino]-1H-pyrazol-5-yl}cyclopentyl (2R)-butan-2-ylcarbamate], for which the Ki came to 81.2 nM on GSK3β (H350L) and 0.93 nM in assay [1].

Regarding `CC[C@H](C)NC(=O)O[C@@H]1CC[C@H](c2cc(NC(=O)Cc3ccon3)n[nH]2)C1` [Example 323, (1R,3S)-3-{3-[(1,2-oxazol-3-ylacetyl)amino]-1H-pyrazol-5-yl}cyclopentyl (2S)-butan-2-ylcarbamate], the Ki turned out to be 74.1 nM on GSK3β (H350L) and 1.07 nM in assay [1].

Take `CC[C@H](C)NC(=O)O[C@@H]1CC[C@H](c2cc(NC(=O)c3ccc(C)nc3)n[nH]2)C1` [Example 324, (1R,3S)-3-(3-{[(6-methylpyridin-3-yl)carbonyl]amino}-1H-pyrazol-5-yl)cyclopentyl (2S)-butan-2-ylcarbamate]: the inhibition constant Ki came out at 94.3 nM on GSK3β (H350L) and 0.54 nM in assay [1].

For the compound `CC[C@H](C)NC(=O)O[C@@H]1CC[C@H](c2cc(NC(=O)Cc3cnccn3)n[nH]2)C1` [Example 325, (1R,3S)-3-{3-[(pyrazin-2-ylacetyl)amino]-1H-pyrazol-5-yl}cyclopentyl (2S)-butan-2-ylcarbamate], the results for the Ki (on GSK3β (H350L); in assay [1]) were 54 nM and 0.81 nM, respectively.

Turning to `CC[C@H](C)NC(=O)O[C@@H]1CC[C@H](c2cc(NC(=O)Cc3ccnn3C)n[nH]2)C1` [Example 326, (1R,3S)-3-(3-{[(1-methyl-1H-pyrazol-5-yl)acetyl]amino}-1H-pyrazol-5-yl)cyclopentyl (2S)-butan-2-ylcarbamate], the results for the Ki (at GSK3β (H350L); in assay [1]) were 72.4 nM and 1.17 nM, respectively.

As to `CC[C@H](C)NC(=O)O[C@@H]1CC[C@H](c2cc(NC(=O)Cc3cnn(C)c3)n[nH]2)C1` [Example 327, (1R,3S)-3-(3-{[(1-methyl-1H-pyrazol-4-yl)acetyl]amino}-1H-pyrazol-5-yl)cyclopentyl (2S)-butan-2-ylcarbamate], the values for the Ki (on GSK3β (H350L); in assay [1]) were 57.8 nM and 0.44 nM, respectively.

`CC[C@H](C)NC(=O)O[C@@H]1CC[C@H](c2cc(NC(=O)Cc3cncn3C)n[nH]2)C1` [Example 329, (1R,3S)-3-(3-{[(1-methyl-1H-imidazol-5-yl)acetyl]amino}-1H-pyrazol-5-yl)cyclopentyl (2S)-butan-2-ylcarbamate]: the Ki at GSK3β (H350L) is 107 nM; in assay [1], 1.02 nM.
